In ChEMBL document CHEMBL1629502, “Labeling study of avidin by modular method for affinity labeling (MoAL)” (Bioorg Med Chem Lett, 2010):
Activity calls are given as the source filed them. The rule behind the calls is not given here.

Key:
[1] = Binding affinity to avidin at 1.6 mM by UV-vis spectroscopy
[2] = Binding affinity to avidin by UV-vis spectroscopy
[3] = Binding affinity to avidin at 80 uM by UV-vis spectroscopy

With COc1nc(Cl)nc(OC)n1 the Activity [1] was “Active”.
With NCc1ccc(Br)cc1 the Activity [2] was “Active”.
Work on O=C(O)CCCC[C@@H]1SC[C@@H]2NC(=O)N[C@@H]21 yielded a Ka [2] of 1e+15 M⁻¹.
For CN(C)CC(=O)OCCCCCCCCNC(=O)CCCCCNC(=O)CCCC[C@@H]1SC[C@@H]2NC(=O)N[C@@H]21, the Activity [3] was “Active”.
With CN(C)CC(=O)OCCCCCCCCCCNC(=O)CCCCCNC(=O)CCCC[C@@H]1SC[C@@H]2NC(=O)N[C@@H]21 the Activity [3] was “Active”.
In the case of CN(C)S(=O)(=O)c1ccc(NCCN)c2nonc12, the Activity [2] is reported as “Active”.
For CN(C)CC(=O)OCCCCCNC(=O)CCCCCNC(=O)CCCC[C@@H]1SC[C@@H]2NC(=O)N[C@@H]21, the Activity [3] was “Active”.
With NCCNC(=O)COc1cc(S(=O)(=O)O)c2ccc3c(S(=O)(=O)O)cc(S(=O)(=O)O)c4ccc1c2c43 the Activity [1] was “Active”.
With CN(C)CC(=O)OCCCCNC(=O)CCCCCNC(=O)CCCC[C@@H]1SC[C@@H]2NC(=O)N[C@@H]21 the Activity [3] was “Active”.
For CN(C)CC(=O)OCCCCCCNC(=O)CCCCCNC(=O)CCCC[C@@H]1SC[C@@H]2NC(=O)N[C@@H]21, the Activity [3] was “Active”.
